US8530525B2 (priority 2009, dated 2013)

What was measured:
[1] = system: population spikes (PS) recorded from the CA1 area of the rat hippocampal slice; format: cell-based
[2] = system: population spikes (PS) of the hippocampal slice
α7 neuronal nAChR = α7 neuronal nAChR (Homo sapiens, UniProt P36544); details: cited from earlier work
α3β4 = α3β4 (Homo sapiens, UniProt P30926+P32297); details: cited from earlier work
[3] = in vivo; cited from earlier work

Chain of α7 neuronal nAChR (P36544 23-502): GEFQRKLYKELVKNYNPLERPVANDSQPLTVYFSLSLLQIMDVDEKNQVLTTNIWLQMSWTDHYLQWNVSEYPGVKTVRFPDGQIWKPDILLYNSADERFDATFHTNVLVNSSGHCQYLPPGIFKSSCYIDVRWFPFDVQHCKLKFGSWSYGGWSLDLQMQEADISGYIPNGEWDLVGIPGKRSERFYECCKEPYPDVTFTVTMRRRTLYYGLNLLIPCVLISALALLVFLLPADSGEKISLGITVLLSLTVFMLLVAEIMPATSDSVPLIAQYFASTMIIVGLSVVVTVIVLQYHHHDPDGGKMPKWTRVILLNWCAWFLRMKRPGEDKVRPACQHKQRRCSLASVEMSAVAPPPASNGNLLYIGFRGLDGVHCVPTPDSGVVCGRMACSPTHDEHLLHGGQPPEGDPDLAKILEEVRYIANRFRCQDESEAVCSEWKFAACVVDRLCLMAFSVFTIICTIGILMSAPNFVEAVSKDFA
Chain of α3β4 (P32297 32-505): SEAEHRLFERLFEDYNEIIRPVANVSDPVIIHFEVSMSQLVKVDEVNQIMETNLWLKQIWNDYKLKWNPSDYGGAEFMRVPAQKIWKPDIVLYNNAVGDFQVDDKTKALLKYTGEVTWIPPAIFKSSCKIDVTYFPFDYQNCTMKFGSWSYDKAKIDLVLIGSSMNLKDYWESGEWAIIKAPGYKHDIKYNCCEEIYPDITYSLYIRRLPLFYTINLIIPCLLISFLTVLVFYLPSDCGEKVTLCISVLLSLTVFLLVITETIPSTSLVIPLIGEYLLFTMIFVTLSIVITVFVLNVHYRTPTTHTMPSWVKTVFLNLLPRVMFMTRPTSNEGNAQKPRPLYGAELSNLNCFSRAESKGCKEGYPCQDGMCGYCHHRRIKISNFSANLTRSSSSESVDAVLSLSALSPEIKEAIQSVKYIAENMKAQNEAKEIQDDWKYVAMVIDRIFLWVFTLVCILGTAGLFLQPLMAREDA
Chain of α3β4 (P30926 22-498): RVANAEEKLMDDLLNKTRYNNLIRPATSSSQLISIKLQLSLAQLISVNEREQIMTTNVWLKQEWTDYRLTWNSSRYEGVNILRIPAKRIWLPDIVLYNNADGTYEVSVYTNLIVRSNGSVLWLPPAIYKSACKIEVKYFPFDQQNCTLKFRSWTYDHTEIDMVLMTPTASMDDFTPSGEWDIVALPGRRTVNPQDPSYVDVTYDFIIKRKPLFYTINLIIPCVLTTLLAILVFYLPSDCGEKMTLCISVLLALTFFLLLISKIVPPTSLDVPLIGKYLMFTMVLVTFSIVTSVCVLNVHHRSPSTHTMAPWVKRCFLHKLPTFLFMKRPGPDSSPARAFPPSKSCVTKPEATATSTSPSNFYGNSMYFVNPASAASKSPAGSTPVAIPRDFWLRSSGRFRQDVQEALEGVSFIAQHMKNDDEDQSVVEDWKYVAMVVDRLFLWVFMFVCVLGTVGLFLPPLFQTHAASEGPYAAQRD

CCOP(=O)(OCC)Oc1ccc([N+](=O)[O-])cc1 [POX, paraoxon]
Maximum inhibition of the PS [1]: ~50% | IC50 ([1]; read-out: POX IC50 for inhibition of PS): ~1000 nM

CN1[C@@H]2CC[C@H]1C[C@@H](OC(=O)C(CO)c1ccccc1)C2 (stereo partly shown) [atropine]
Effect on PS area [2]: did not affect PS area

CC1=CC(O)CC(C)(O)C=CC(C(C)C)CCC(C)=CCC1 [4R cembranoid, (1S,2E,4R,6R,7E,11E)-cembra-2,7,11-triene-4,6-diol]
Antagonism of α7 neuronal nAChR (α7 neuronal nAChR): subtype selective antagonist | Activity at α3β4 subtypes (α3β4): little activity | Brain penetration [3]: readily penetrates into the brain | Metabolism and excretion [3]: promptly metabolized in the liver and excreted as a soluble metabolite
